Experiments:
Format in all cases: in vivo
[1] = system: Orchid Thrips (Dichromothrips corbetti); assay: B.4 Orchid thrips floral-immersion test; conditions: 96 h, in comparison with untreated controls, after 4 days
Procedure: B.4 Orchid Thrips (Dichromothrips Corbetti)
Dichromothrips corbetti adults used for bioassay are obtained from a colony maintained continuously under laboratory conditions. For testing purposes, the test compound is diluted to a concentration of 300 ppm (wt compound: vol diluent) in a 1:1 mixture of acetone:water (vol:vol), plus 0.01% vol/vol Kinetic® surfactant. Thrips potency of each compound is evaluated by using a floral-immersion technique. Plastic petri dishes are used as test arenas. All petals of individual, intact orchid flowers are dipped into treatment solution and allowed to dry. Treated flowers are placed into individual petri dishes along with 10-15 adult thrips. The petri dishes are then covered with lids. All test arenas are held under continuous light and a temperature of about 28° C. for duration of the assay. After 4 days, the numbers of live thrips are counted on each flower, and along inner walls of each petri dish. The level of thrips mortality is extrapolated from pre-treatment thrips numbers.

[2] = system: Green Soldier Stink Bug (Nezara viridula); assay: B.15 Green soldier stink bug test on sprayed soybean pods; conditions: 120 h, in comparison with untreated controls, after 5 days
Procedure: B.15 Green Soldier Stink Bug (Nezara viridula)
The active compound is dissolved at the desired concentration in a mixture of 1:1 (vol:vol) distilled water:aceteone. Surfactant (Kinetic HV) is added at a rate of 0.01% (vol/vol). The test solution is prepared at the day of use. Soybean pods were placed in microwavable plastic cups lined with moist filter paper and inoculated with ten 3rd instar N. viridula. Using a hand atomizer, an approximately 2 ml solution is sprayed into each cup. Treated cups were kept at about 28-29° C. and relative humidity of about 50-60%. Percent mortality was recorded after 5 days.

[3] = system: Boll Weevil (Anthonomus grandis); assay: B.9 Boll weevil microtiter diet test, egg and larval mortality; conditions: 120 h, in comparison with untreated controls, egg and larval mortality after 5 days
Procedure: B.9 Boll Weevil (Anthonomus grandis)
(§1) For evaluating control of boll weevil (Anthonomus grandis) the test unit consisted of 24-well-microtiter plates containing an insect diet and 20-30 A. grandis eggs. The compounds were formulated using a solution containing 75% v/v water and 25% v/v DMSO. Different concentrations of formulated compounds were sprayed onto the insect diet at 20 μl, using a custom built micro atomizer, at two replications. After application, microtiter plates were incubated at about 23±1° C. and about 50±5% relative humidity for 5 days. Egg and larval mortality was then visually assessed.

[4] = system: Vetch Aphid (Megoura viciae); assay: B.7 Vetch aphid test on broad bean leaf disks; conditions: foliar, 120 h, in comparison with untreated controls, 5 days
Procedure: B.7 Vetch Aphid (Megoura viciae)
For evaluating control of vetch aphid (Megoura viciae) through contact or systemic means the test unit consisted of 24-well-microtiter plates containing broad bean leaf disks. The compounds were formulated using a solution containing 75% v/v water and 25% v/v DMSO. Different concentrations of formulated compounds were sprayed onto the leaf disks at 2.5 μl, using a custom built micro atomizer, at two replications. After application, the leaf disks were air-dried and 5-8 adult aphids placed on the leaf disks inside the microtiter plate wells. The aphids were then allowed to suck on the treated leaf disks and incubated at about 23±1° C. and about 50±5% relative humidity for 5 days. Aphid mortality and fecundity was then visually assessed.

[5] = system: Yellow Fever Mosquito (Aedes aegypti); assay: whole plant or invertebrate; conditions: 48 h, in comparison with untreated controls, larval mortality after 2 days
Procedure: B.12 Yellow Fever Mosquito (Aedes aegypti)
For evaluating control of yellow fever mosquito (Aedes aegypti) the test unit consisted of 96-well-microtiter plates containing 200 μl of tap water per well and 5-15 freshly hatched A. aegypti larvae. The compounds or mixtures were formulated using a solution containing 75% water and 25% DMSO. Different concentrations of formulated compounds or mixtures were sprayed onto the insect diet at 2.5 μl, using a custom built micro atomizer, at two replications. After application, microtiter plates were incubated at 28±1° C., 80±5% relative humidity for 2 days. Larval mortality was then visually assessed.

[6] = system: Cowpea Aphid (Aphis craccivora); assay: B.1 Cowpea aphid spray test on potted cowpea plants; conditions: in comparison with untreated controls, population reduction assessed after 24, 72 and 120 hours
Procedure: B.1 Cowpea Aphid (Aphis craccivora)
The active compounds were formulated in 50:50 (v/v) acetone:water. The test solution was prepared at the day of use. Potted cowpea plants colonized with approximately 100-150 aphids of various stages were sprayed after the pest population has been recorded. Population reduction was assessed after 24, 72, and 120 hours.

[7] = system: Rice brown plant hopper (Nilaparvata lugens); assay: B.11 Rice brown plant hopper test on sprayed rice seedlings; conditions: in comparison with untreated controls, after 72 hours
Procedure: B.11 Rice brown plant hopper (Nilaparvata lugens)
Rice seedlings were cleaned and washed 24 hours before spraying. The active compounds were formulated in 50:50 acetone:water (vol:vol) and 0.1% vol/vol surfactant (EL 620) was added. Potted rice seedlings were sprayed with 5 ml test solution, air dried, placed in cages and inoculated with 10 adults. Treated rice plants were kept at about 28-29° C. and relative humidity of about 50-60%. Percent mortality was recorded after 72 hours.

[8] = system: Tobacco Budworm (Heliothis virescens); assay: B.8 Tobacco budworm test on sprayed cotton plants; conditions: 96 h, in comparison with untreated controls, 4 days after treatment
Procedure: B.8 Tobacco Budworm (Heliothis virescens) I
The active compounds were formulated in cyclohexanone as a 10,000 ppm solution supplied in tubes. The tubes were inserted into an automated electrostatic sprayer equipped with an atomizing nozzle and they served as stock solutions for which lower dilutions were made in 50% acetone:50% water (v/v). A nonionic surfactant (Kinetic®) was included in the solution at a volume of 0.01% (v/v). Cotton plants were grown 2 plants to a pot and selected for treatment at the cotyledon stage. Test solutions were sprayed onto the foliage by an automated electrostatic plant sprayer equipped with an atomizing spray nozzle. The plants were dried in the sprayer fume hood and then removed from the sprayer. Each pot was placed into perforated plastic bags with a zip closure. About 10 to 11 budworm larvae were placed into the bag and the bags zipped closed. Test plants were maintained in a growth room at about 25° C. and about 20-40% relative humidity for 4 days, avoiding direct exposure to fluorescent light (24 hour photoperiod) to prevent trapping of heat inside the bags. Mortality and reduced feeding were assessed 4 days after treatment, compared to untreated control plants.

[9] = system: Green Peach Aphid (Myzus persicae); assay: B.3 Green peach aphid systemic test, artificial diet under membrane; conditions: 72 h, concentration of the test solution 2500 mg/L, 3 days
From the text: B.3 Green Peach Aphid (Myzus persicae)
For evaluating control of green peach aphid (Myzus persicae) through systemic means the test unit consisted of 96-well-microtiter plates containing liquid artificial diet under an artificial membrane. The compounds were formulated using a solution containing 75% v/v water and 25% v/v DMSO. Different concentrations of formulated compounds were pipetted into the aphid diet, using a custom built pipetter, at two replications. After application, 5-8 adult aphids were placed on the artificial membrane inside the microtiter plate wells. The aphids were then allowed to suck on the treated aphid diet and incubated at about 23±1° C. and about 50±5% relative humidity for 3 days. Aphid mortality and fecundity was then visually assessed.

[10] = system: Silverleaf Whitefly (Bemisia argentifolii); assay: B.5 Silverleaf whitefly test on sprayed cotton plants; conditions: 72 h, in comparison with untreated controls, 3 days after treatment
Procedure: B.5 Silverleaf Whitefly (Bemisia argentifolii)
The active compounds were formulated in cyclohexanone as a 10,000 ppm solution supplied in 1.3 ml ABgene® tubes. These tubes were inserted into an automated electrostatic sprayer equipped with an atomizing nozzle and they served as stock solutions for which lower dilutions were made in 50% acetone:50% water (v/v). A nonionic surfactant (Kinetic®) was included in the solution at a volume of 0.01% (v/v). Cotton plants at the cotyledon stage (one plant per pot) were sprayed by an automated electrostatic plant sprayer equipped with an atomizing spray nozzle. The plants were dried in the sprayer fume hood and then removed from the sprayer. Each pot was placed into a plastic cup and 10 to 12 whitefly adults (approximately 3-5 days old) were introduced. The insects were collected using an aspirator and 0.6 cm, nontoxic Tygon® tubing (R-3603) connected to a barrier pipette tip. The tip, containing the collected insects, was then gently inserted into the soil containing the treated plant, allowing insects to crawl out of the tip to reach the foliage for feeding. Cups were covered with a reusable screened lid (150-micron mesh polyester screen PeCap from Tetko, Inc.). Test plants were maintained in a growth room at 25° C. and 20-40% relative humidity for 3 days, avoiding direct exposure to fluorescent light (24 hour photoperiod) to prevent trapping of heat inside the cup. Mortality was assessed 3 days after treatment, compared to untreated control plants.

[11] = system: Red Spider Mite (Tetranychus kanzawai); assay: B.10 Red spider mite test on sprayed cowpea beans; conditions: in comparison with untreated controls, 72 hours after treatment
Procedure: B.10 Red Spider Mite (Tetranychus kanzawai)
The active compound is dissolved at the desired concentration in a mixture of 1:1 (vol:vol) distilled water:acetone. Add surfactant (Alkamuls® EL 620) at the rate of 0.1% (vol/vol). The test solution is prepared at the day of use. Potted cowpea beans of 7-10 days of age were cleaned with tap water and sprayed with 5 ml of the test solution using air driven hand atomizer. The treated plants were allowed to air dry and afterwards inculated with 20 or more mites by clipping a cassava leaf section with known mite population. Treated plants were placed inside a holding room at about 25-27° C. and about 50-60% relative humidity. Percent mortality was assessed 72 hours after treatment.

[12] = system: Southern Armyworm (Spodoptera eridania); assay: B.6 Southern armyworm test on sprayed lima bean plants; conditions: 96 h, 500 ppm, in comparison with untreated controls, 4 days after treatment
Procedure: B.6 Southern Armyworm (Spodoptera eridania)
The active compounds were formulated in cyclohexanone as a 10,000 ppm solution supplied in 1.3 ml ABgene® tubes. These tubes were inserted into an automated electrostatic sprayer equipped with an atomizing nozzle and they served as stock solutions for which lower dilutions were made in 50% acetone:50% water (v/v). A nonionic surfactant (Kinetic®) was included in the solution at a volume of 0.01% (v/v). Lima bean plants (variety Sieva) were grown 2 plants to a pot and selected for treatment at the 1st true leaf stage. Test solutions were sprayed onto the foliage by an automated electrostatic plant sprayer equipped with an atomizing spray nozzle. The plants were dried in the sprayer fume hood and then removed from the sprayer. Each pot was placed into perforated plastic bags with a zip closure. Ten to 11 armyworm larvae were placed into the bag and the bags zipped closed. Test plants were maintained in a growth room at 25° C. and 20-40% relative humidity for 4 days, avoiding direct exposure to fluorescent light (24 hour photoperiod) to prevent trapping of heat inside the bags. Mortality and reduced feeding were assessed 4 days after treatment, compared to untreated control plants.

[13] = system: Mediterranean Fruitfly (Ceratitis capitata); assay: B.2 Mediterranean fruitfly microtiter diet test, egg and larval mortality; conditions: 120 h, in comparison with untreated controls, egg and larval mortality after 5 days
Procedure: B.2 Mediterranean Fruitfly (Ceratitis capitata)
as §1, with “Mediterranean fruitfly (Ceratitis capitata)” for “boll weevil (Anthonomus grandis)”, “microtiter” for “24-well-microtiter”, “50-80 C. capitata” for “20-30 A. grandis”, “5” for “20”, “28±1°” for “23±1°”, “80±5%” for “50±5%”

N#CC(C#N)(Cc1ccc(C(F)(F)F)nc1)c1ccccc1 [II-3]
≥ 75%: mortality at 500 ppm [1] | mortality at 500 ppm [2] | mortality at 2500 ppm [3] | mortality at 2500 ppm [4] | mortality at 2500 ppm [5] | mortality at 500 ppm [6] | mortality at 300 ppm [7] | mortality at 2500 ppm [8]

N#CC(C#N)(Cc1ccc(F)cn1)c1ccccc1 [II-11]
≥ 75%: mortality at 2500 µg/mL [9] | mortality at 2500 ppm [8]

N#CC(C#N)(Cc1ncc(C(F)(F)F)cn1)c1ccccc1 [II-16]
≥ 75%: mortality at 500 ppm [1] | mortality at 500 ppm [10] | mortality at 2500 ppm [3] | mortality at 2500 µg/mL [9] | mortality at 2500 ppm [4] | mortality at 2500 ppm [5] | mortality at 500 ppm [11] | mortality at 500 ppm [6] | mortality at 300 ppm [7] | mortality at 500 ppm [12]

N#CC(C#N)(Cc1cnc(C(F)(F)F)cn1)c1ccccc1 [II-26]
≥ 75%: mortality at 500 ppm [1] | mortality at 500 ppm [10] | mortality at 2500 ppm [13] | mortality at 2500 ppm [3] | mortality at 2500 ppm [4] | mortality at 2500 ppm [5] | mortality at 500 ppm [11] | mortality at 500 ppm [6] | mortality at 2500 ppm [8]

N#CC(C#N)(Cc1cccnc1)c1ccccc1 [II-31]
≥ 75%: mortality at 500 ppm [10] | mortality at 2500 ppm [3] | mortality at 2500 ppm [8]

N#CC(C#N)(Cc1ccc(F)nc1F)c1ccccc1 [II-50]
≥ 75%: mortality at 500 ppm [1] | mortality at 2500 ppm [5] | mortality at 2500 ppm [8]

N#CC(C#N)(Cc1ccc(F)nc1F)c1cc(F)cc(F)c1 [II-52]
≥ 75%: mortality at 500 ppm [1] | mortality at 2500 ppm [3] | mortality at 2500 µg/mL [9] | mortality at 2500 ppm [8]

From patent publication US10117430B2, “Malononitrile compounds for controlling animal pests” (BASF SE, priority 2012, dated 2018)
